Patent US6737383B1, “Herbicidal oxadiazolidines” (priority 1999, dated 2004)

How the values were obtained:
[1] = test system: surinam grass; assay: Test B pre/postemergence surinam grass; format: in vivo, Brachiaria decumbens
Method in brief: (§1)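 Test chemicals in a non-phytotoxic solvent mixture with surfactant were sprayed preemergence onto planted seeds and postemergence onto plants 2 to 18 cm tall (1- to 4-leaf stage). After twelve to sixteen days in a greenhouse, injury was visually rated against untreated controls from 0 (no effect) to 10 (complete control).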

[2] = test system: smallflower flatsedge; assay: Test B flood test smallflower flatsedge; format: in vivo, Cyperus difformis
Method in brief: (§2)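 Read-out is a visual response score from 0 (no effect) to 10 (complete control), assigned by comparison with untreated controls. Treatment was applied at the 2-leaf stage, and plants stayed in the greenhouse for twelve to sixteen days before scoring.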

[3] = test system: duck salad; assay: Test B flood test duck salad; format: in vivo, Heteranthera limosa
Method in brief: as §2

[4] = test system: bedstraw; assay: Test B pre/postemergence bedstraw; format: in vivo, Galium aparine; conditions: Preemergence, Rate 62 g/ha; scale 0 to 10 (0 no effect, 10 complete control)
Method in brief: as §1

[5] = test system: pigweed; assay: Test B pre/postemergence pigweed; format: in vivo, Amaranthus retroflexus
Method in brief: as §1

[6] = test system: purple nutsedge; assay: Test B pre/postemergence purple nutsedge; format: in vivo, Cyperus rotundus
Method in brief: as §1

[7] = test system: bamyardgrass; assay: Test B flood test barnyardgrass; format: in vivo, Echinochloa crus-galli
Method in brief: as §2

[8] = test system: cocklebur; assay: Test B pre/postemergence cocklebur; format: in vivo, Xanthium strumarium
Method in brief: as §1

[9] = test system: sugar beet; assay: Test B pre/postemergence sugar beet; format: in vivo, Beta vulgaris
Method in brief: as §1

[10] = test system: wild oat; assay: Test B pre/postemergence wild oat; format: in vivo, Avena fatua
Method in brief: as §1

[11] = test system: corn; assay: Test B pre/postemergence corn; format: in vivo, Zea mays
Method in brief: as §1

[12] = test system: blackgrass; assay: Test B pre/postemergence blackgrass; format: in vivo, Alopecurus myosuroides
Method in brief: as §1

[13] = test system: wheat; assay: Test B pre/postemergence wheat; format: in vivo, Triticum aestivum
Method in brief: as §1

[14] = test system: rice; assay: Test B flood test rice; format: in vivo, Oryza sativa
Method in brief: as §2

[15] = test system: crabgrass; assay: Test B pre/postemergence crabgrass; format: in vivo, Digitaria sanguinalis
Method in brief: as §1

[16] = test system: soybean; assay: Test B pre/postemergence soybean; format: in vivo, Glycine max
Method in brief: as §1

[17] = test system: velvetleaf; assay: Test B pre/postemergence velvetleaf; format: in vivo, Abutilon theophrasti
Method in brief: as §1

[18] = test system: morningglory; assay: Test B pre/postemergence morningglory; format: in vivo, Ipomoea hederacea
Method in brief: as §1

[19] = test system: rape; assay: Test B pre/postemergence rape; format: in vivo, Brassica napus
Method in brief: as §1

[20] = test system: giant foxtail; assay: Test B pre/postemergence giant foxtail; format: in vivo, Setaria faberii
Method in brief: as §1

[21] = Postemergence, Rate 62 g/ha, scale of 0 to 10, 0 is no effect, 10 is complete control
[22] = Postemergence, Rate 125 g/ha, scale of 0 to 10 where 0 is no effect and 10 is complete control
[23] = Postemergence, Rate 250 g/ha, scale of 0 to 10, 0 is no effect, 10 is complete control
[24] = Postemergence, Rate 500 g/ha, scale of 0 to 10 where 0 is no effect and 10 is complete control
[25] = Preemergence, Rate 62 g/ha, scale 0 to 10 (0 no effect, 10 complete control)
[26] = Preemergence, Rate 125 g/ha, scale of 0 to 10 where 0 is no effect and 10 is complete control
[27] = Preemergence, Rate 500 g/ha, scale of 0 to 10 where 0 is no effect and 10 is complete control
[28] = Rate 62 g/ha, flood test species, Pre-emergence, visual evaluation after twelve to sixteen days
[29] = Rate 125 g/ha, under heading Pre-emergence, flood test species, visual evaluation after twelve to sixteen days
[30] = Rate 250 g/ha, Pre-emergence (flood test species), scale 0 to 10, 0 is no effect, 10 is complete control
[31] = Rate 500 g/ha, Pre-emergence section of Table B, 0 to 10 scale (0 no effect, 10 complete control)

CCc1nc(C)c(C(C)n2c(=O)on(C(=O)N(c3ccc(Cl)cc3)C(C)C)c2=O)s1 (stereo not drawn) [Compound 590]
3: Crabgrass plant response rating [15, 27] | Soybean plant response rating [16, 23] | Plant response rating, Soybean [16, 24] | Plant response rating, Morningglory [18, 22] | Morningglory plant response rating [18, 23]
1: Plant response rating, Soybean [16, 22]
2: Plant response rating, Crabgrass [15, 24] | Velvetleaf plant response rating [17, 23] | Plant response rating, Velvetleaf [17, 24] | Morningglory plant response rating [18, 21]
7: Giant foxtail plant response rating [20, 27]
0: B. signalgrass plant response rating [1, 21] | Plant response rating, B. signalgrass [1, 22] | B. signalgrass plant response rating [1, 23] | Plant response rating, B. signalgrass [1, 24] | B. signalgrass plant response rating [1, 25] | B. signalgrass plant response rating [1, 26] | B. signalgrass plant response rating (0 to 10 scale, 0 is no effect, 10 is complete control) ([1]; Preemergence, Rate 250 g/ha) | B. signalgrass plant response rating [1, 27] | Plant response rating, S. Flatsedge (0 to 10 scale, 0 is no effect, 10 is complete control) [2, 28] | S. Flatsedge plant response rating (0 to 10 scale, 0 is no effect, 10 is complete control) [2, 29] | S. Flatsedge plant response rating [2, 30] | S. Flatsedge plant response rating [2, 31] | Plant response rating, Ducksalad (0 to 10 scale, 0 is no effect, 10 is complete control) [3, 28] | Ducksalad plant response rating (0 to 10 scale, 0 is no effect, 10 is complete control) [3, 29] | Ducksalad plant response rating [3, 30] | Ducksalad plant response rating [3, 31] | Bedstraw plant response rating [4] | Plant response rating, Redroot pigweed [5, 22] | Redroot pigweed plant response rating [5, 23] | Plant response rating, Redroot pigweed [5, 24] | Redroot pigweed plant response rating [5, 25] | Redroot pigweed plant response rating [5, 26] | Redroot pigweed plant response rating [5, 27] | Nutsedge plant response rating [6, 21] | Plant response rating, Nutsedge [6, 22] | Nutsedge plant response rating [6, 23] | Plant response rating, Nutsedge [6, 24] | Nutsedge plant response rating [6, 25] | Nutsedge plant response rating [6, 26] | Nutsedge plant response rating [6, 27] | Plant response rating, Barnyardgrass (0 to 10 scale, 0 is no effect, 10 is complete control) [7, 28] | Barnyardgrass plant response rating (0 to 10 scale, 0 is no effect, 10 is complete control) [7, 29] | Barnyardgrass plant response rating [7, 30] | Barnyardgrass plant response rating [7, 31] | Cocklebur plant response rating [8, 21] | Plant response rating, Cocklebur [8, 22] | Cocklebur plant response rating [8, 23] | Plant response rating, Cocklebur [8, 24] | Cocklebur plant response rating [8, 25] | Cocklebur plant response rating [8, 26] | Cocklebur plant response rating (0 to 10 scale) ([8]; Preemergence, Rate 250 g/ha) | Cocklebur plant response rating [8, 27] | Plant response rating, Sugarbeets [9, 22] | Sugarbeets plant response rating [9, 23] | Plant response rating, Sugarbeets [9, 24] | Sugarbeets plant response rating [9, 25] | Sugarbeets plant response rating [9, 26] | Sugarbeets plant response rating [9, 27] | Plant response rating, Wild oats [10, 22] | Wild oats plant response rating [10, 23] | Plant response rating, Wild oats [10, 24] | Wild oats plant response rating [10, 25] | Wild oats plant response rating [10, 26] | Wild oats plant response rating [10, 27] | Corn plant response rating [11, 21] | Plant response rating, Corn [11, 22] | Corn plant response rating [11, 23] | Plant response rating, Corn [11, 24] | Corn plant response rating [11, 25] | Corn plant response rating [11, 26] | Corn plant response rating (0 to 10 scale) ([11]; Preemergence, Rate 250 g/ha) | Corn plant response rating [11, 27] | Blackgrass plant response rating [12, 21] | Plant response rating, Blackgrass [12, 22] | Blackgrass plant response rating [12, 23] | Plant response rating, Blackgrass [12, 24] | Blackgrass plant response rating [12, 25] | Blackgrass plant response rating [12, 26] | Blackgrass plant response rating (0 to 10 scale) ([12]; Preemergence, Rate 250 g/ha) | Blackgrass plant response rating [12, 27] | Plant response rating, Wheat [13, 22] | Wheat plant response rating [13, 23] | Plant response rating, Wheat [13, 24] | Wheat plant response rating [13, 25] | Wheat plant response rating [13, 26] | Wheat plant response rating [13, 27] | Plant response rating, Rice (0 to 10 scale, 0 is no effect, 10 is complete control) [14, 28] | Rice plant response rating (0 to 10 scale, 0 is no effect, 10 is complete control) [14, 29] | Rice plant response rating [14, 30] | Rice plant response rating [14, 31] | Crabgrass plant response rating [15, 21] | Plant response rating, Crabgrass [15, 22] | Crabgrass plant response rating [15, 23] | Crabgrass plant response rating [15, 25] | Crabgrass plant response rating [15, 26] | Soybean plant response rating [16, 25] | Soybean plant response rating [16, 26] | Soybean plant response rating [16, 27] | Plant response rating, Velvetleaf [17, 22] | Velvetleaf plant response rating [17, 25] | Velvetleaf plant response rating [17, 26] | Velvetleaf plant response rating [17, 27] | Morningglory plant response rating [18, 25] | Morningglory plant response rating [18, 26] | Morningglory plant response rating [18, 27] | Rape plant response rating [19, 21] | Plant response rating, Rape [19, 22] | Rape plant response rating [19, 23] | Plant response rating, Rape [19, 24] | Rape plant response rating [19, 25] | Rape plant response rating [19, 26] | Rape plant response rating [19, 27] | Giant foxtail plant response rating [20, 21] | Plant response rating, Giant foxtail [20, 22] | Giant foxtail plant response rating [20, 23] | Plant response rating, Giant foxtail [20, 24] | Giant foxtail plant response rating [20, 25] | Giant foxtail plant response rating [20, 26]
4: Plant response rating, Morningglory [18, 24]
